Data on 32 molecules can be found in article PMC9552003, “Chemosensory protein 4 is required for Bradysia odoriphaga to be olfactory attracted to sulfur compounds released from Chinese chives” (Frontiers in Physiology, 2022).

Several values for one entry are separate records, joined by “and”; a condition that tells them apart may be missing. Equal entries are not always repeated. Where two headings read alike, the source gives them in different places. Where only a bound is given, the exact number is not on record here.

For orientation: IC50 means the point on the concentration scale where inhibition reaches its midpoint. The term Ki denotes the dissociation constant of the complex between target and ligand, obtained from inhibition or displacement. In general, Kd refers to the equilibrium constant for the complex coming apart.

The target in one experiment is recombinant BodoCSP4 (Bradysia odoriphaga, UniProt A0A2S0X9L0). Kind of experiment: biochemical. Format: binding. As for the experimental part: An F-380 fluorescence spectrophotometer (Tianjin, China) was used to measure the binding affinity of BodoCSP4 to the selected volatiles, using 1-N-phenyl-naphthylamine (1-NPN) as the fluorescent probe. […] Both 1-NPN and the volatile compounds were diluted in chromatographic-grade methanol to make 1 mM stock solutions. Recombinant BodoCSP4 was dissolved in 20 mM Tris-HCl (pH 7.4) and diluted to a 2 µM stock solution.

Experiment [1] has as its system B. odoriphaga male adults. More on the design: method as in Zhang et al. (2021). The following applies: ref Zhang et al. (2021); cited from earlier work.
Experiment [2] deals with B. odoriphaga male adults. Briefly: Y-tube olfactometer assay after dsRNA injection. Format: in vivo, Bradysia odoriphaga. The settings on record: for effect of silencing of BodoCSP4 on behavioral response of male adults to the ligand: RNAi, Y-tube olfaction assays; for behavioral response (attraction to ligand vs hexane control): n = 60, chi-square test. The source says: The primer pairs dsCSP4 and dsGFP, containing the T7 promoter sequence, are listed in Table 1, and the T7 RiboMAX ™ Express RNAi System was used to synthesize double stranded RNAs (dsRNAs). The dsRNAs were microinjected into 3-day-old pupae of B. odoriphaga, and newly eclosed male adults were selected for dsRNA extraction and behavioral assays as previously described ([Yang et al., 2021b]; [Zhang et al., 2021]). According to the fluorescence binding results, after BodoCSP4 was silenced, a Y-tube olfactometer was used to assess the behavioral responses of B. odoriphaga male adults to the ligands diallyl disulfide, methyl allyl disulfide, and n-heptadecane as described in our previous report ([Yang et al., 2019]). In brief, a 10-μL solution of diallyl disulfide, methyl allyl disulfide, or n-heptadecane in hexane was placed on a strip (4 × 40 mm) of filter paper; after 10 s, the strip was placed at the end of one of the two Y-tube arms. As a control, a hexane-treated filter paper strip was placed at the end of the other arm. Two streams of clean air were passed through the Y-tube arms to the base, and one adult male that had been previously injected (at the pupal stage, 12 h before emergence) with dsBodoCSP4 or dsGFP was placed in the base of the Y-tube. If the male adult moved at least half way up one of the Y-tube arms, the result was recorded and considered an indication of attraction or repulsion depending on which arm was selected. Each of six treatment combinations (3 host plant volatiles with controls and dsBodoCSP4 or dsGFP microinjected adults) are represented by 60 replicate assays.
All RT-qPCR experiments were analyzed using one-way ANOVA followed by Tukey-HSD tests with SPSS 20.0 software. All RT-qPCR experiments were conducted using three independent biological replicates. In each of the six Y-tube olfactometer assays (3 ligands and controls without ligand × two types of microinjected B. odoriphaga adult males), behavioral responses to filter paper with or without ligand were analyzed by a chi-square test (χ 2).

Experiment [3] relates to antennae of both male and female B. odoriphaga. More on the design: method as in Yang et al., 2019. The following applies: ref Yang et al., 2019; cited from earlier work.
In experiment [4] the test system is B. odoriphaga male adults. More on the design: method as in Li H. J. et al., 2007. The following applies: extract from the abdomen of B. odoriphaga females; ref Li H. J. et al., 2007; cited from earlier work.
The mark [5] stands for this setting: recombinant BodoCSP4, Supplemental Table 2, Ki, read-out: Ki.
Where [6] appears, read: Ki, recombinant BodoCSP4, Supplemental Table 2, Ki.
Setting [7] is: recombinant BodoCSP4, Supplemental Table 2, IC50, read-out: IC50.
Where [8] appears, read: recombinant BodoCSP4, competitive with 1-NPN, values in text, read-out: binding affinity (Ki).

Sequence of recombinant BodoCSP4 (A0A2S0X9L0 entry or part of it): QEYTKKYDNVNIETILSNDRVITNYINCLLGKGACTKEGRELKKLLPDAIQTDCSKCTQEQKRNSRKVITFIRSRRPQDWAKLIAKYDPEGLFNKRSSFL

As for `CC12CCC(CC1)C(C)(C)O2` [1,8-Cineole], at recombinant BodoCSP4, the IC50 is > 50 µM. Besides, the Ki at recombinant BodoCSP4 (setting [5]) was > 50 µM.

With `c1ccc(Nc2cccc3ccccc23)cc1` [1-NPN, N-phenyl-1-naphthylamine, reference compound], the dissociation constant (Kd) at recombinant BodoCSP4 stood at 1.08 µM.

In the case of `CCCCC(C)=O` [2-Hexanone], at recombinant BodoCSP4, the IC50 was > 50 µM. In addition, the Ki on recombinant BodoCSP4 (setting [6]) is > 50 µM.

As for `C=C(C)[C@H]1CC=C(C)CC1` [(R)-(+)-Limonene], on recombinant BodoCSP4 (setting [7]), the IC50 is > 50 µM. The Ki on recombinant BodoCSP4 (setting [5]) is > 50 µM.

As for `CC(=O)c1ccccc1` [Acetophenone], the IC50 on recombinant BodoCSP4 is > 50 µM. Moreover, the inhibitory constant (Ki) at recombinant BodoCSP4 (setting [5]) is > 50 µM.

With `CC(=O)/C=C/C1=C(C)CCCC1(C)C` [Beta-Ionone], the IC50 on recombinant BodoCSP4 was > 50 µM. Moreover, the Ki at recombinant BodoCSP4 (setting [6]) is > 50 µM.

On to `C=CC(=O)OCCCC` [Butyl Acrylate], for which the IC50 on recombinant BodoCSP4 was > 50 µM. Further, the Ki at recombinant BodoCSP4 (setting [6]) was > 50 µM.

For `CCCCOC(=O)CCC(C)=O` [Butyl levulinate], on recombinant BodoCSP4 (setting [7]), the concentration for half-maximal inhibition (IC50) is > 50 µM. For the same molecule, the Ki on recombinant BodoCSP4 (setting [5]) was > 50 µM.

On to `Cc1ccc(C(C)C)cc1O` [Carvaceol], for which the IC50 at recombinant BodoCSP4 (setting [7]) is > 50 µM. Moreover, the Ki on recombinant BodoCSP4 (setting [5]) is > 50 µM.

For the molecule `CC(C)=CCCC(C)CCO` (centres unmarked) [Citronellol], on recombinant BodoCSP4 (setting [7]), the IC50 is > 50 µM. Besides, the inhibition constant Ki on recombinant BodoCSP4 (setting [5]) was > 50 µM.

On to `CCCCCCCCCC=O` [Decanal], for which, on recombinant BodoCSP4 (setting [7]), the IC50 is > 50 µM. The Ki on recombinant BodoCSP4 (setting [5]) is > 50 µM.

As for `C=CCSSCC=C` [Diallyl disulfide], the “effect of silencing of BodoCSP1 on behavioral response of male adults” value in experiment [1] was “reduced the behavioral response”. In addition, the Ki at recombinant BodoCSP4 (binding affinity (Ki), recombinant BodoCSP4, competitive with 1-NPN, values in text) is 5.71 µM and < 10 µM. Also, the “effect of silencing of BodoCSP4 on behavioral response of male adults to the ligand” value (“effect of silencing of BodoCSP4” below) in experiment [2] is given as “significantly decreased”. In addition, the “behavioral response (attraction to ligand vs hexane control)” value in experiment [2] (dsBodoCSP4-treated adult males) was “no olfactory attraction”; in experiment [2] (dsGFP-treated adult males), “attracted”. In experiment [3], the “electrophysiological responses from the antennae” value was “strong electrophysiological responses”.

As to `CCCCCCCCCCCC` [Dodecane], the IC50 on recombinant BodoCSP4 (setting [7]) is > 50 µM. At recombinant BodoCSP4 (setting [5]), the Ki was > 50 µM.

As to `CCCCCCCCCCCC=O` [Dodecyl aldehyde], the IC50 at recombinant BodoCSP4 (setting [7]) was > 50 µM. Besides, the Ki on recombinant BodoCSP4 (setting [5]) was > 50 µM.

As for `CCCCCCCCCCCCCCCC` [Hexadecane], the IC50 at recombinant BodoCSP4 (setting [7]) was > 50 µM. Besides, the Ki at recombinant BodoCSP4 (setting [5]) was > 50 µM.

Turning to `C=CC(C)(O)CCC=C(C)C` (centres unmarked) [Linalool], at recombinant BodoCSP4, the IC50 was > 50 µM. For the same molecule, at recombinant BodoCSP4 (setting [6]), the Ki was > 50 µM.

As to `C=CCSSC` [Methyl allyl disulfide], in experiment [1], the “effect of silencing of BodoCSP1 on behavioral response of male adults” value is “reduced the behavioral response”. The Ki at recombinant BodoCSP4 (setting [8]) is 5.71 µM and < 10 µM. Further, in experiment [2], the “effect of silencing of BodoCSP4” value was “did not decrease”. Further, the “behavioral response (attraction to ligand vs hexane control)” value in experiment [2] (dsBodoCSP4-treated adult males) and in experiment [2] (dsGFP-treated adult males) was “attracted” each time. The “electrophysiological responses from the antennae” value in experiment [3] is listed as “strong electrophysiological responses”.

In the case of `COC(=O)Cc1ccccc1` [Methyl phenylacetate], the IC50 on recombinant BodoCSP4 is > 50 µM. The Ki at recombinant BodoCSP4 (setting [6]) was > 50 µM.

For `CCCCCCCCC` [Nonane], at recombinant BodoCSP4 (setting [7]), the IC50 was > 50 µM. Also, the Ki on recombinant BodoCSP4 (setting [5]) is > 50 µM.

Consider `C=CC(C)=CCC=C(C)C` [Ocimene], for which the IC50 on recombinant BodoCSP4 (setting [7]) is > 50 µM. Besides, at recombinant BodoCSP4 (setting [5]), the Ki was > 50 µM.

Turning to `CCCCCCCC=O` [Octanal], the IC50 on recombinant BodoCSP4 (setting [7]) is > 50 µM. The Ki at recombinant BodoCSP4 (setting [5]) was > 50 µM.

For the molecule `CCCCCCCCCCCCCC` [Tetradecane], at recombinant BodoCSP4 (setting [7]), the IC50 is > 50 µM. Further, the Ki on recombinant BodoCSP4 (setting [5]) is > 50 µM.

In the case of `CCCCC=O` [Valeric aldehyde], the IC50 at recombinant BodoCSP4 (setting [7]) was > 50 µM. Further, the Ki on recombinant BodoCSP4 (setting [5]) is > 50 µM.

Take `C/C1=C\CC/C(C)=C/CC(C)(C)/C=C/C1` [a-Humulene]: on recombinant BodoCSP4 (setting [7]), the IC50 was > 50 µM. The inhibition constant (Ki) at recombinant BodoCSP4 (setting [5]) was > 50 µM.

`O=Cc1ccccc1` [benzaldehyde]: the IC50 at recombinant BodoCSP4 was > 50 µM. On recombinant BodoCSP4 (setting [6]), the Ki is > 50 µM.

For `CC/C=C\CCO` [cis-3-Hexen-1-ol], the IC50 at recombinant BodoCSP4 was > 50 µM. The Ki on recombinant BodoCSP4 (setting [6]) is > 50 µM.

With `CCCCCCC=O` [heptanal], at recombinant BodoCSP4, the IC50 is > 50 µM. For the same molecule, the Ki at recombinant BodoCSP4 (setting [5]) was > 50 µM.

Regarding `CCCCCCCCCCCCCCCCC` [n-Heptadecane], the Ki at recombinant BodoCSP4 (setting [8]) was 6.85 µM and < 10 µM. In addition, the “effect of silencing of BodoCSP4” value in experiment [2] is reported as “significantly decreased”. Also, the “behavioral response (attraction to ligand vs hexane control)” value in experiment [2] (dsBodoCSP4-treated adult males) was “no olfactory attraction”; in experiment [2] (dsGFP-treated adult males), “attracted”. Moreover, the “behavioral response in male adults” value in experiment [4] was “elicits a behavioral response”.

As for `CCCCCCCCC=O` [nonanal], the IC50 at recombinant BodoCSP4 (setting [7]) is > 50 µM. In addition, at recombinant BodoCSP4 (setting [5]), the Ki was > 50 µM.

In the case of `C=C1CC/C=C(/C)CC[C@@H]2[C@@H]1CC2(C)C` [ß-caryophyllene], the IC50 on recombinant BodoCSP4 (setting [7]) was > 50 µM. In addition, the Ki on recombinant BodoCSP4 (setting [5]) was > 50 µM.

Regarding `C=C1CCC2CC1C2(C)C` (centres unmarked) [ß-pinene], on recombinant BodoCSP4 (setting [7]), the 50% inhibitory concentration (IC50) is > 50 µM. The inhibitory constant (Ki) on recombinant BodoCSP4 (setting [5]) is > 50 µM.

Consider `c1ccc2[nH]ccc2c1` [(H-11)indole], for which the IC50 on recombinant BodoCSP4 (setting [7]) was > 50 µM. Moreover, the Ki on recombinant BodoCSP4 (setting [5]) was > 50 µM.
